# In ChEMBL document CHEMBL3046848, “Synthesis and biological evaluation of novel series of thieno[2,3-d]pyrimidine derivatives as anticancer and antimicrobial agents” (2013):
# How the values were obtained:
# Assay type in all cases: functional
# CCRF-CEM = test: Growth inhibition of Homo sapiens (human) CCRF-CEM cells at 10 uM after 48 hr by SRB assay; settings: read-out: GI
# CAKI-1 = test: Anticancer activity against Homo sapiens (human) CAKI-1 cells after 48 hr by SRB assay; settings: CAKI-1, 48 h
# NCI-H226 = test: Growth inhibition of Homo sapiens (human) NCI-H226 cells at 10 uM after 48 hr by SRB assay; settings: NCI-H226, 48 h, read-out: GI
# NCI-H23 = test: Anticancer activity against Homo sapiens (human) NCI-H23 cells after 48 hr by SRB assay; settings: NCI-H23, 48 h
# DU-145 = test: Anticancer activity against Homo sapiens (human) DU145 cells after 48 hr by SRB assay; settings: DU-145, 48 h
# MCF7 [1] = test: Growth inhibition of Homo sapiens (human) MCF7 cells at 10 uM after 48 hr by SRB assay; settings: MCF7, 48 h, read-out: GI
# UACC-62 = test: Anticancer activity against Homo sapiens (human) UACC62 cells after 48 hr by SRB assay; settings: UACC-62, 48 h
# M14 [2] = test: Growth inhibition of Homo sapiens (human) M14 cells at 10 uM after 48 hr by SRB assay; settings: M14, 48 h, read-out: GI
# OVCAR-4 = test: Anticancer activity against Homo sapiens (human) OVCAR4 cells after 48 hr by SRB assay; settings: OVCAR-4, 48 h
# OVCAR-8 = test: Anticancer activity against Homo sapiens (human) OVCAR8 cells after 48 hr by SRB assay; settings: OVCAR-8, 48 h
# NCI/ADR-RES = test: Anticancer activity against Homo sapiens (human) NCI/ADR-RES cells after 48 hr by SRB assay
# HCT-15 = test: Growth inhibition of Homo sapiens (human) HCT15 cells at 10 uM after 48 hr by SRB assay; settings: HCT-15, 48 h, read-out: GI
# RPMI-8226 = test: Growth inhibition of Homo sapiens (human) RPMI8226 cells at 10 uM after 48 hr by SRB assay; settings: RPMI-8226, 48 h, read-out: GI
# OVCAR-3 = test: Growth inhibition of Homo sapiens (human) OVCAR3 cells at 10 uM after 48 hr by SRB assay; settings: OVCAR-3, 48 h, read-out: GI
# T47D = test: Growth inhibition of Homo sapiens (human) T47D cells at 10 uM after 48 hr by SRB assay; settings: read-out: GI
# SK-MEL-5 = test: Growth inhibition of Homo sapiens (human) SK-MEL-5 cells at 10 uM after 48 hr by SRB assay; settings: SK-MEL-5, 48 h, read-out: GI
# NCI-H460 = test: Growth inhibition of Homo sapiens (human) NCI-H460 cells at 10 uM after 48 hr by SRB assay; settings: NCI-H460, 48 h, read-out: GI
# NCI-H522 = test: Anticancer activity against Homo sapiens (human) NCI-H522 cells after 48 hr by SRB assay; settings: NCI-H522, 48 h
# Hs-578T = test: Anticancer activity against Homo sapiens (human) Hs 578T cells after 48 hr by SRB assay
# MDA-MB-231 = test: Anticancer activity against Homo sapiens (human) MDA-MB-231/ATCC cells after 48 hr by SRB assay; settings: MDA-MB-231, 48 h
# MOLT-4 = test: Growth inhibition of Homo sapiens (human) MOLT4 cells at 10 uM after 48 hr by SRB assay; settings: MOLT-4, 48 h, read-out: GI
# M14 [3] = test: Anticancer activity against Homo sapiens (human) M14 cells after 48 hr by SRB assay; settings: M14, 48 h
# U-251 = test: Growth inhibition of Homo sapiens (human) U251 cells at 10 uM after 48 hr by SRB assay; settings: U-251, 48 h, read-out: GI
# EKVX = test: Growth inhibition of Homo sapiens (human) EKVX cells at 10 uM after 48 hr by SRB assay; settings: read-out: GI
# MCF7 [4] = test: Anticancer activity against Homo sapiens (human) MCF7 cells after 48 hr by SRB assay; settings: MCF7, 48 h
# Candida albicans = test: Antimicrobial activity against Candida albicans ATCC2091 assessed as growth inhibition after 48 hr by two-fold serial dilution method; settings: ATCC2091, 48 h
# SW-620 = test: Growth inhibition of Homo sapiens (human) SW620 cells at 10 uM after 48 hr by SRB assay; settings: SW-620, 48 h, read-out: GI
# BT-549 = test: Growth inhibition of Homo sapiens (human) BT549 cells at 10 uM after 48 hr by SRB assay; settings: BT-549, 48 h, read-out: GI
# RXF 393 = test: Anticancer activity against Homo sapiens (human) RXF393 cells after 48 hr by SRB assay; settings: RXF 393, 48 h
# A549 = test: Anticancer activity against Homo sapiens (human) A549/ATCC cells after 48 hr by SRB assay; settings: A549, 48 h
# SR = test: Anticancer activity against Homo sapiens (human) SR cells after 48 hr by SRB assay
# Staphylococcus aureus = test: Antimicrobial activity against Staphylococcus aureus ATCC6538P assessed as diameter of growth inhibition zone at 1 mg/ml after 24 hr by agar cup diffusion method; settings: read-out: IZ
# MDA-MB-468 = test: Anticancer activity against Homo sapiens (human) MDA-MB-468 cells after 48 hr by SRB assay; settings: MDA-MB-468, 48 h
# [5] = read-out: LC50 (the source's name)
compound,measurement,setting,value
Cc1c(C(N)=O)sc2nc(C)n(/N=c3\scc(-c4ccccc4)n3Cc3ccccc3)c(=O)c12,inhibition of growth at 10 µM,CCRF-CEM,112%
same,GI50,CAKI-1,3.35 µM
same,TGI,CAKI-1,> 100 µM
same,CC50,CAKI-1; [5],> 100 µM
same,inhibition of growth at 10 µM,NCI-H226,69.1%
same,GI50,NCI-H23,3.12 µM
same,TGI,NCI-H23,> 100 µM
same,CC50,NCI-H23; [5],> 100 µM
same,GI50,DU-145,3.9 µM
same,TGI,DU-145,> 100 µM
same,CC50,DU-145; [5],> 100 µM
same,inhibition of growth at 10 µM,MCF7 [1],82.7%
same,GI50,UACC-62,4.26 µM
same,TGI,UACC-62,83.2 µM
same,CC50,UACC-62; [5],> 100 µM
same,inhibition of growth at 10 µM,M14 [2],63.6%
same,GI50,OVCAR-4,2.5 µM
same,TGI,OVCAR-4,> 100 µM
same,CC50,OVCAR-4; [5],> 100 µM
same,GI50,OVCAR-8,3.49 µM
same,TGI,OVCAR-8,> 100 µM
same,CC50,OVCAR-8; [5],> 100 µM
same,GI50,NCI/ADR-RES,2.9 µM
same,TGI,NCI/ADR-RES,29.2 µM
same,CC50,NCI/ADR-RES; [5],> 100 µM
same,inhibition of growth at 10 µM,HCT-15,85.1%
same,inhibition of growth at 10 µM,RPMI-8226,110%
same,inhibition of growth at 10 µM,OVCAR-3,95.7%
same,inhibition of growth at 10 µM,T47D,65.3%
same,inhibition of growth at 10 µM,SK-MEL-5,92.6%
same,inhibition of growth at 10 µM,NCI-H460,92.5%
same,GI50,NCI-H522,1.73 µM
same,TGI,NCI-H522,7.23 µM
same,CC50,NCI-H522; [5],> 100 µM
same,GI50,Hs-578T,3.85 µM
same,TGI,Hs-578T,> 100 µM
same,CC50,Hs-578T; [5],> 100 µM
same,GI50,MDA-MB-231,3.28 µM
same,TGI,MDA-MB-231,8.41 µM
same,CC50,MDA-MB-231; [5],> 100 µM
same,inhibition of growth at 10 µM,MOLT-4,87.9%
same,GI50,M14 [3],3.88 µM
same,TGI,M14 [3],84.5 µM
same,CC50,M14 [3]; [5],> 100 µM
same,inhibition of growth at 10 µM,U-251,92.2%
same,inhibition of growth at 10 µM,EKVX,107%
same,GI50,MCF7 [4],2.92 µM
same,TGI,MCF7 [4],> 100 µM
same,CC50,MCF7 [4]; [5],> 100 µM
same,MIC,Candida albicans,125 µg/mL
same,inhibition of growth at 10 µM,SW-620,87.5%
same,inhibition of growth at 10 µM,BT-549,107%
same,GI50,RXF 393,3.43 µM
same,TGI,RXF 393,> 100 µM
same,CC50,RXF 393; [5],> 100 µM
same,GI50,A549,3.79 µM
same,TGI,A549,> 100 µM
same,CC50,A549; [5],> 100 µM
same,GI50,SR,5.74 µM
same,TGI,SR,> 100 µM
same,CC50,SR; [5],> 100 µM
same,zone of inhibition at 1000 µg/mL,Staphylococcus aureus,10 mm
same,GI50,MDA-MB-468,2.65 µM
same,TGI,MDA-MB-468,> 100 µM
same,CC50,MDA-MB-468; [5],> 100 µM
